Patent US20250369954A1, “PLATFORM AND METHOD TO CO[…] FUN[…] CARD[…] OTHER CELLS ON BOTH SIDES OF A POROUS MEMBRANE” (Government of the United States of America, as represented …, priority 2024, published 2025)

Tested on: hiPSC-CM cells
Test: Impedance measurement of cardiomyocyte beating on the microfluidic device
Assay type: cell-based, human
Conditions: 1 μM verapamil, after 10 minutes of treatment, hiPSC-CM on porous membrane
Method: In one embodiment, human induced pluripotent stem cell-derived cardiomyocytes (hiPSC-CM) were cultured directly on the PET membrane of the microfluidic device.
Cells in this example were trapped in the region of interest within the device using dielectrophoretic cell capture, directing cells from the microfluidic channel to the electrode. In this example, the entire electrode was covered with cells in increasing density from around 1 to 3 minutes. The following parameters for dielectrophoresis were used in this example: 4-6 Vpp, 12 MHz, […] μl min-1.
In one embodiment, hiPSC-CM cells are captured on one side of the porous membrane as in Example 1. The cardiomyocytes are treated with 1 μM verapamil, a Ca^2+ channel blocker used for treating arrhythmia.

COc1ccc(CCN(C)CCCC(C#N)(c2ccc(OC)c(OC)c2)C(C)C)cc1OC (stereo not shown) [verapamil]
effect on cardiomyocyte beating (change in impedance): cessation of cardiomyocyte beating
